Reference: PubChem BioAssay AID342 (DTP/NCI, 2004)
Several values for one entry are separate records, joined by “and”; a condition that tells them apart may be missing. Equal values may be shown once. Numbered stars: 1 amine (or outer) side, 2 acyl side, 3 side chain; on linkers, the order of the positions; unused ones are H or OH. Bridge positions count the residues as written; N and C are the ends. Square brackets hold non-standard residues; d marks the D form. Peptide text beside a SMILES is read from it. * marks the point of attachment. X1 = CC(C)C(C)C(C(=O)[*:2])N(C)[*:1]; Picolinoyl(3-OH) = O=C(c1ncccc1O)*; NMePhg = CN[CH](C(=O)O)c1ccccc1; Hyp = O=C(O)[CH]1C[CH](O)CN1; Sar = CNCC(=O)O

Tested on: Swiss mice, Sarcoma 180 sc, mean tumor weight T/C
Experiment: NCI In Vivo Anticancer Drug Screen. Data for tumor model Sarcoma 180 (subcutaneous) in Swiss mice
Settings: endpoint: mean tumor weight, higher = larger tumour
Procedure, shortened: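 Mice bearing transplanted tumors were treated with compound, and survival or tumor size was measured. Values are expressed as the treated-group measurement (T) divided by the vehicle-treated control measurement (C).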

[1] = dose: 25.0 mg/kg/injection, schedule: Q01DX007 (ip), vehicle: carboxymethylcellulose (CMC)
[2] = dose: 50.0 mg/kg/injection, schedule: Q01DX007 (ip), vehicle: carboxymethylcellulose (CMC)
[3] = dose: 75.0 mg/kg/injection, schedule: Q01DX007 (ip), vehicle: carboxymethylcellulose (CMC)
[4] = dose: 100.0 mg/kg/injection, schedule: Q01DX007 (ip), vehicle: carboxymethylcellulose (CMC)
[5] = dose: 7.0 mg/kg/injection, schedule: Q01DX007 (ip), vehicle: carboxymethylcellulose (CMC)
[6] = dose: 14.0 mg/kg/injection, schedule: Q01DX007 (ip), vehicle: carboxymethylcellulose (CMC)

C[C@]12C=CC(=O)C=C1CC[C@@H]1[C@@H]2CC[C@]2(C)OC(=O)CC[C@@H]12
T/C (dose: 250.0 mg/kg/injection, schedule: Q01DX007 (sc), vehicle: steriod suspending solution): 74 % of control and 99 % of control | T/C (dose: 500.0 mg/kg/injection, schedule: Q01DX007 (sc), vehicle: steriod suspending solution): 83 % of control and 105 % of control

[Cu+2].[O-]c1ccc(Br)c2cccnc12.[O-]c1ccc(Br)c2cccnc12
T/C (dose: 4.2 mg/kg/injection, schedule: Q01DX007 (ip), vehicle: carboxymethylcellulose (CMC)): 71 % of control | T/C (dose: 6.2 mg/kg/injection, schedule: Q01DX007 (ip), vehicle: carboxymethylcellulose (CMC)): 66 % of control | T/C (dose: 14.0 mg/kg/injection, schedule: Q01DX007 (ip), vehicle: other): 63 % of control | T/C (dose: 21.0 mg/kg/injection, schedule: Q01DX007 (ip), vehicle: other): 39 % of control | T/C (dose: 32.0 mg/kg/injection, schedule: Q01DX007 (ip), vehicle: other): 26 % of control

CC(=O)C1(/C(C)=C/C2C(C=O)=CC(C)(C)C2O)CC1 (configuration not stated)
T/C (dose: 0.25 mg/kg/injection, schedule: Q01DX007 (ip), vehicle: saline): 106 % of control | T/C (dose: 0.5 mg/kg/injection, schedule: Q01DX007 (ip), vehicle: saline): 59 % of control | T/C (dose: 1.0 mg/kg/injection, schedule: Q01DX007 (ip), vehicle: saline): 65 % of control | T/C (dose: 2.0 mg/kg/injection, schedule: Q01DX007 (ip), vehicle: saline): 67 % of control | T/C (dose: 8.0 mg/kg/injection, schedule: Q01DX007 (ip), vehicle: saline): 75 % of control | T/C (dose: 16.0 mg/kg/injection, schedule: Q01DX007 (ip), vehicle: saline): 94 % of control and 102 % of control | T/C (dose: 32.0 mg/kg/injection, schedule: Q01DX007 (ip), vehicle: saline): 99 % of control | T/C (dose: 64.0 mg/kg/injection, schedule: Q01DX007 (ip), vehicle: saline): 77 % of control | T/C (dose: 128.0 mg/kg/injection, schedule: Q01DX007 (ip), vehicle: saline): 78 % of control

CC(C)CC1NC(=O)C(NC(=O)c2ncccc2O)C(C)OC(=O)C(c2ccccc2)N(C)C(=O)C(C)NC(=O)C(C(C)C(C)C)N(C)C(=O)CN(C)C(=O)C2CC(O)CN2C1=O (configuration not stated) ({Picolinoyl(3-OH)}-TL[Hyp][Sar][X1]A[NMePhg]; ester 1-C; configuration not given here)
T/C (dose: 6.25 mg/kg/injection, schedule: Q01DX007 (ip), vehicle: carboxymethylcellulose (CMC)): 85 % of control | T/C [1]: 106 % of control | T/C [2]: 114 % of control | T/C [3]: 67 % of control | T/C [4]: 100 % of control | T/C (dose: 200.0 mg/kg/injection, schedule: Q01DX007 (ip), vehicle: carboxymethylcellulose (CMC)): 98 % of control

C[C@]12CC[C@@H]3c4ccc(OC5CCCCO5)cc4CC[C@H]3[C@@H]1CC[C@@H]2O (some centres not stated)
T/C (dose: 111.0 mg/kg/injection, schedule: Q01DX007 (ip), vehicle: steriod suspending solution): 55 % of control | T/C (dose: 166.6 mg/kg/injection, schedule: Q01DX007 (ip), vehicle: steriod suspending solution): 20 % of control | T/C (dose: 250.0 mg/kg/injection, schedule: Q01DX007 (ip), vehicle: steriod suspending solution): 24 % of control | T/C (dose: 375.0 mg/kg/injection, schedule: Q01DX007 (ip), vehicle: steriod suspending solution): 17 % of control

CCOC(=O)Sc1ncnc2nc[nH]c12
T/C (dose: 1.7 mg/kg/injection, schedule: Q01DX007 (ip), vehicle: carboxymethylcellulose (CMC)): 109 % of control | T/C (dose: 3.5 mg/kg/injection, schedule: Q01DX007 (ip), vehicle: carboxymethylcellulose (CMC)): 84 % of control | T/C [5]: 102 % of control | T/C [6]: 41 % of control | T/C (dose: 28.0 mg/kg/injection, schedule: Q01DX007 (ip), vehicle: carboxymethylcellulose (CMC)): 46 % of control | T/C (dose: 44.0 mg/kg/injection, schedule: Q01DX007 (ip), vehicle: carboxymethylcellulose (CMC)): 56 % of control | T/C (dose: 56.0 mg/kg/injection, schedule: Q01DX007 (ip), vehicle: carboxymethylcellulose (CMC)): 30 % of control | T/C (dose: 66.0 mg/kg/injection, schedule: Q01DX007 (ip), vehicle: carboxymethylcellulose (CMC)): 61 % of control | T/C [4]: 35 % of control | T/C (dose: 112.0 mg/kg/injection, schedule: Q01DX007 (ip), vehicle: carboxymethylcellulose (CMC)): 22 % of control | T/C (dose: 150.0 mg/kg/injection, schedule: Q01DX007 (ip), vehicle: carboxymethylcellulose (CMC)): 30 % of control

CC1(C)CCC2(C(=O)O)CCC3=C(C(CCl)CC4C3(C)CCC3C4(C)CC(O)C(O)C3(C)C(=O)O)C2C1 (configuration not stated)
T/C [1]: 108 % of control | T/C [2]: 80 % of control | T/C [3]: 157 % of control | T/C (dose: 125.0 mg/kg/injection, schedule: Q01DX007 (ip), vehicle: carboxymethylcellulose (CMC)): 70 % of control

O=C(O)CCCc1ccc(N(CCCl)CCCl)cc1
T/C (dose: 1.93 mg/kg/injection, schedule: Q01DX007 (ip), vehicle: carboxymethylcellulose (CMC)): 49 % of control | T/C (dose: 2.62 mg/kg/injection, schedule: Q#A X014 (ip), vehicle: carboxymethylcellulose (CMC)): 99 % of control | T/C (dose: 3.01 mg/kg/injection, schedule: Q01DX007 (ip), vehicle: carboxymethylcellulose (CMC)): 88 % of control | T/C (dose: 3.85 mg/kg/injection, schedule: Q01DX007 (ip), vehicle: carboxymethylcellulose (CMC)): 41 % of control | T/C (dose: 5.25 mg/kg/injection, schedule: Q#A X014 (ip), vehicle: carboxymethylcellulose (CMC)): 69 % of control | T/C (dose: 5.6 mg/kg/injection, schedule: Q01DX007 (ip), vehicle: carboxymethylcellulose (CMC)): 71 % of control | T/C (dose: 6.03 mg/kg/injection, schedule: Q01DX007 (ip), vehicle: carboxymethylcellulose (CMC)): 86 % of control | T/C [5]: 52 % of control and 57 % of control | T/C (dose: 7.7 mg/kg/injection, schedule: Q01DX007 (ip), vehicle: carboxymethylcellulose (CMC)): 37 % of control | T/C (dose: 9.33 mg/kg/injection, schedule: Q01DX007 (ip), vehicle: carboxymethylcellulose (CMC)): 63 % of control | T/C (dose: 10.5 mg/kg/injection, schedule: Q01DX007 (ip), vehicle: carboxymethylcellulose (CMC)): 60 % of control | T/C (dose: 10.5 mg/kg/injection, schedule: Q#A X014 (ip), vehicle: carboxymethylcellulose (CMC)): 18 % of control | T/C (dose: 12.05 mg/kg/injection, schedule: Q01DX007 (ip), vehicle: carboxymethylcellulose (CMC)): 58 % of control | T/C [6]: 23 % of control and 48 % of control

Cc1ccc(S(=O)(=O)N=S2CCCC2)cc1
T/C (dose: 111.0 mg/kg/injection, schedule: Q#A X014 (ip), vehicle: water): 90 % of control | T/C (dose: 166.5 mg/kg/injection, schedule: Q#A X014 (ip), vehicle: water): 107 % of control | T/C (dose: 250.0 mg/kg/injection, schedule: Q#A X014 (ip), vehicle: water): 91 % of control | T/C (dose: 375.0 mg/kg/injection, schedule: Q#A X014 (ip), vehicle: water): 66 % of control

Cn1cc(F)c(=O)[nH]c1=O
T/C (dose: 10.0 mg/kg/injection, schedule: Q01DX007 (ip), vehicle: carboxymethylcellulose (CMC)): 99 % of control and 112 % of control | T/C (dose: 20.0 mg/kg/injection, schedule: Q01DX007 (ip), vehicle: carboxymethylcellulose (CMC)): 88 % of control and 94 % of control | T/C (dose: 80.0 mg/kg/injection, schedule: Q01DX007 (ip), vehicle: carboxymethylcellulose (CMC)): 95 % of control

CC(=O)OCC1OC(n2ncc(=O)[nH]c2=O)C(OC(C)=O)C1OC(C)=O (configuration not stated)
T/C (dose: 375.0 mg/kg/injection, schedule: Q01DX007 (ip), vehicle: other): 74 % of control | T/C (dose: 750.0 mg/kg/injection, schedule: Q01DX007 (ip), vehicle: other): 93 % of control | T/C (dose: 1500.0 mg/kg/injection, schedule: Q01DX007 (ip), vehicle: other): 74 % of control

ClCc1c2ccccc2c(CCl)c2ccccc12
T/C (dose: 0.25 mg/kg/injection, schedule: Q01DX007 (ip), vehicle: methylcellulose (MC)): 95 % of control | T/C (dose: 0.5 mg/kg/injection, schedule: Q01DX007 (ip), vehicle: methylcellulose (MC)): 89 % of control | T/C (dose: 1.0 mg/kg/injection, schedule: Q01DX007 (ip), vehicle: methylcellulose (MC)): 122 % of control | T/C (dose: 1.5 mg/kg/injection, schedule: Q01DX007 (ip), vehicle: methylcellulose (MC)): 72 % of control | T/C (dose: 1.8 mg/kg/injection, schedule: Q01DX007 (ip), vehicle: other): 22 % of control | T/C (dose: 1.8 mg/kg/injection, schedule: Q01DX007 (ip), vehicle: saline): 113 % of control | T/C (dose: 2.0 mg/kg/injection, schedule: Q01DX007 (ip), vehicle: methylcellulose (MC)): 72 % of control | T/C (dose: 2.6 mg/kg/injection, schedule: Q01DX007 (ip), vehicle: other): 23 % of control | T/C (dose: 2.6 mg/kg/injection, schedule: Q01DX007 (ip), vehicle: saline): 102 % of control | T/C (dose: 4.0 mg/kg/injection, schedule: Q01DX007 (ip), vehicle: other): 26 % of control | T/C (dose: 6.0 mg/kg/injection, schedule: Q01DX007 (ip), vehicle: other): 17 % of control | T/C (dose: 9.0 mg/kg/injection, schedule: Q01DX007 (ip), vehicle: saline): 40 % of control
